Source: PubChem BioAssay AID1963986 (Molecular Pharmacology Branch, DTP, NCI, 2024)
pIC50: −log10 of the molar value.

System: 171881-019-R-J1-PDC tumor spheroid viability
Assay: Anticancer human tumor 171881-019-R-J1-PDC patient-derived invasive breast carcinoma cell line growth inhibition [PI3K]
Conditions: spheroids with HUVEC and MSC; for pIC50: curve of first compound; for viability, T/C: stronger effect = lower value
Outline: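 Spheroid viability read-out. Co-cultures contained the tumor line plus HUVEC and human MSCs. Each agent was paired with a PI3K inhibitor (inavolisib, alpelisib, duvelisib, copanlisib) across half-log dilutions starting at clinical Cmax, or at 10 microM when Cmax was unknown.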

[1] = second compound 0.0316 µM, first compound 0.0316 µM
[2] = second compound 0.0316 µM, first compound 0.1 µM
[3] = second compound 0.1 µM, first compound 0.0316 µM
[4] = second compound 0.1 µM, first compound 0.1 µM
[5] = second compound 0.316 µM, first compound 0.0316 µM
[6] = second compound 0.316 µM, first compound 0.1 µM
[7] = second compound 1 µM, first compound 0.0316 µM
[8] = second compound 1 µM, first compound 0.1 µM
[9] = second compound 3.16 µM, first compound 0.0316 µM
[10] = second compound 3.16 µM, first compound 0.1 µM
[11] = second compound 10 µM, first compound 0.0316 µM
[12] = second compound 10 µM, first compound 0.1 µM
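Also: spheroids exposed to compound for 7 days before viability read.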
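For viability, T/C in this document: 100% = DMSO vehicle-treated spheroids.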

For `C[C@@H](NC(=O)c1ncnc(N)c1Cl)c1ncc(C(=O)Nc2cc(C(F)(F)F)c(Cl)cn2)s1` + CC(Nc1ncnc2nc[nH]c12)c1cc2cccc(Cl)c2c(=O)n1-c1ccccc1, the pIC50 (second compound 0.0316 µM) was < 5.00, the pIC50 (second compound 0.1 µM) was 5.02 and the pIC50 (second compound 0.316 µM) was 5.08. It also gave a pIC50 (second compound 1 µM) of 5.15, a pIC50 (second compound 3.16 µM) of 5.52 and a pIC50 (second compound 10 µM) of 6.18. It also gave a viability, T/C [1] of 76.3%, a viability, T/C [2] of 81.8% and a viability, T/C (second compound 0.0316 µM, first compound 0.316 µM) of 86.3%. It also gave a viability, T/C (second compound 0.0316 µM, first compound 1 µM) of 104%, a viability, T/C (second compound 0.0316 µM, first compound 3.16 µM) of 79% and a viability, T/C (second compound 0.0316 µM, first compound 10 µM) of 51.3%. For the same molecule, the viability, T/C [3] was 92.4%, the viability, T/C [4] was 96.4% and the viability, T/C (second compound 0.1 µM, first compound 0.316 µM) was 88.2%. For the same molecule, the viability, T/C (second compound 0.1 µM, first compound 1 µM) was 93.4%, the viability, T/C (second compound 0.1 µM, first compound 3.16 µM) was 76.5% and the viability, T/C (second compound 0.1 µM, first compound 10 µM) was 48.5%. It also gave a viability, T/C [5] of 92.7%, a viability, T/C [6] of 78% and a viability, T/C (second compound 0.316 µM, first compound 0.316 µM) of 93.2%. The viability, T/C (second compound 0.316 µM, first compound 1 µM) was 83.2%, the viability, T/C (second compound 0.316 µM, first compound 3.16 µM) was 79.4% and the viability, T/C (second compound 0.316 µM, first compound 10 µM) was 44.1%. For the same molecule, the viability, T/C [7] was 99.6%, the viability, T/C [8] was 92.8% and the viability, T/C (second compound 1 µM, first compound 0.316 µM) was 96.4%. It also gave a viability, T/C (second compound 1 µM, first compound 1 µM) of 93.8%, a viability, T/C (second compound 1 µM, first compound 3.16 µM) of 69.4% and a viability, T/C (second compound 1 µM, first compound 10 µM) of 41.4%. For the same molecule, the viability, T/C [9] was 90.1%, the viability, T/C [10] was 74.8% and the viability, T/C (second compound 3.16 µM, first compound 0.316 µM) was 78%. For the same molecule, the viability, T/C (second compound 3.16 µM, first compound 1 µM) was 77.9%, the viability, T/C (second compound 3.16 µM, first compound 3.16 µM) was 48.8% and the viability, T/C (second compound 3.16 µM, first compound 10 µM) was 30%. The viability, T/C [11] was 63.8%, the viability, T/C [12] was 60.8% and the viability, T/C (second compound 10 µM, first compound 0.316 µM) was 54.6%. It also gave a viability, T/C (second compound 10 µM, first compound 1 µM) of 48.5%, a viability, T/C (second compound 10 µM, first compound 3.16 µM) of 33.4% and a viability, T/C (second compound 10 µM, first compound 10 µM) of 21.2%.
For `Cn1ncnc1[C@H]1c2n[nH]c(=O)c3cc(F)cc(c23)N[C@@H]1c1ccc(F)cc1` + CC(Nc1ncnc2nc[nH]c12)c1cc2cccc(Cl)c2c(=O)n1-c1ccccc1, the pIC50 (second compound 0.0316 µM) was < 7.00, the pIC50 (second compound 0.1 µM) was < 7.00 and the pIC50 (second compound 0.316 µM) was < 7.00. For the same molecule, the pIC50 (second compound 1 µM) was < 7.00, the pIC50 (second compound 3.16 µM) was < 7.00 and the pIC50 (second compound 10 µM) was < 7.00. The viability, T/C (second compound 0.0316 µM, first compound 0.000316 µM) was 88.4%, the viability, T/C (second compound 0.0316 µM, first compound 0.001 µM) was 96.4% and the viability, T/C (second compound 0.0316 µM, first compound 0.00316 µM) was 93.4%. It also gave a viability, T/C (second compound 0.0316 µM, first compound 0.01 µM) of 104%, a viability, T/C [1] of 97.3% and a viability, T/C [2] of 92.1%. The viability, T/C (second compound 0.1 µM, first compound 0.000316 µM) was 102%, the viability, T/C (second compound 0.1 µM, first compound 0.001 µM) was 98.6% and the viability, T/C (second compound 0.1 µM, first compound 0.00316 µM) was 88.8%. The viability, T/C (second compound 0.1 µM, first compound 0.01 µM) was 109%, the viability, T/C [3] was 90.6% and the viability, T/C [4] was 102%. The viability, T/C (second compound 0.316 µM, first compound 0.000316 µM) was 93.2%, the viability, T/C (second compound 0.316 µM, first compound 0.001 µM) was 99.5% and the viability, T/C (second compound 0.316 µM, first compound 0.00316 µM) was 92.1%. It also gave a viability, T/C (second compound 0.316 µM, first compound 0.01 µM) of 106%, a viability, T/C [5] of 90.1% and a viability, T/C [6] of 95.8%. It also gave a viability, T/C (second compound 1 µM, first compound 0.000316 µM) of 82%, a viability, T/C (second compound 1 µM, first compound 0.001 µM) of 100% and a viability, T/C (second compound 1 µM, first compound 0.00316 µM) of 105%. It also gave a viability, T/C (second compound 1 µM, first compound 0.01 µM) of 103%, a viability, T/C [7] of 97.1% and a viability, T/C [8] of 98.2%. It also gave a viability, T/C (second compound 3.16 µM, first compound 0.000316 µM) of 83.5%, a viability, T/C (second compound 3.16 µM, first compound 0.001 µM) of 91.3% and a viability, T/C (second compound 3.16 µM, first compound 0.00316 µM) of 85.1%. It also gave a viability, T/C (second compound 3.16 µM, first compound 0.01 µM) of 93.2%, a viability, T/C [9] of 92.5% and a viability, T/C [10] of 78.1%. It also gave a viability, T/C (second compound 10 µM, first compound 0.000316 µM) of 61.6%, a viability, T/C (second compound 10 µM, first compound 0.001 µM) of 64.7% and a viability, T/C (second compound 10 µM, first compound 0.00316 µM) of 60.5%. For the same molecule, the viability, T/C (second compound 10 µM, first compound 0.01 µM) was 60.8%, the viability, T/C [11] was 57.2% and the viability, T/C [12] was 57.6%.
